This is an account of results in patent US20120045393A1 (priority 2009, published 2012).

This test deals with LHRH binding sites on human ovarian cancer cells (EFO-27).
The mark [1] stands for this setting: Table 5: modifications of amino acids at positions 1 and 2, in vitro binding on EFO-27 cells.

Like-named read-outs stand apart in the source and are kept apart here. Non-standard residues stand in square brackets, D forms with d. Residues, ends and D or L forms follow the SMILES beside them. *: point of attachment. DOTA = O=C(O)CN1CCN(CC(=O)O)CCN(CC(=O)*)CCN(CC(=O)O)CC1; Bpa = N[C@@H](Cc1ccc(C(=O)c2ccccc2)cc1)C(=O)O; Nicotinoyl = O=C(c1cccnc1)*; azaGly = NNC(=O)O; Sar = CNCC(=O)O
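Further: Cell-associated radioactivity on confluent EFO-27 monolayers in 96-well plates, measured by microplate scintillation counting.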

Description: The EFO27 human ovarian cancer cells were obtained from the American Type Culture Collection and cultured in growth medium, RPMI 1640 (Cellgro) supplemented with 10% fetal bovine serum. The cultures were maintained in a humidified atmosphere containing 5% CO2/95% air at 37° C. and passaged and harvested routinely using 0.05% trypsin/EDTA.
LHRH compounds were screened in a standard cell-based plate assay for their ability to compete with the radio-iodinated LHRH, [Darg^6, ^125I-Tyr^8,azaGly^10-LHRH-II] ([^125I-Tyr^8]BRU-2477) for binding to cancer cells. […] Briefly, EFO-27 cells were cultured and seeded in 96-well clear flat bottom plates at 30,000/well density in growth medium and were used for the assay at 100% confluence the following day, after a wash with chilled phosphate-buffered saline pH 7.4 (PBS). The binding assay was carried out by incubating cells with [^125I-Tyr^8]BRU-2477 in the absence or presence of varying concentrations of test compounds for 90 min at −10° C. All compounds were diluted in phosphate buffered saline (VWR CAT#45000-434) supplemented with 20 mM HEPES, 0.1% BSA, 0.5 mM PMSF (AEBSF), bacitracin (100 mg/L), pH 7.4. At the end of incubation, cells were washed with PBS and the radioactivity associated with each well was read using a Microplate Scintillation counter. [^125I-Tyr^8]BRU-2477 was custom made by GE Healthcare (Woburn, Mass.) and supplied as freeze-dried powder with a radiochemical purity (RCP) of >95% and specific activity of 2000 Ci/mmol.

As to `CNCC(=O)N[C@@H](Cc1c[nH]cn1)C(=O)N[C@@H](Cc1c[nH]c2ccccc12)C(=O)N[C@@H](CO)C(=O)N[C@@H](Cc1cnc[nH]1)C(=O)N[C@H](CCCNC(=N)N)C(=O)N[C@@H](Cc1c[nH]c2ccccc12)C(=O)N[C@@H](Cc1ccc(C(=O)c2ccccc2)cc1)C(=O)N1CCC[C@H]1C(=O)NNC(N)=O` [BRU-2441, Sar-His-Trp-Ser-His-Darg-Trp-Bpa-Pro-azaGly-NH2], for the setting “BRU-2441 vs BRU-2439, BRU-2666 vs Sar1 analog, BRU-3072 vs Pro9 analog”, the “times more potent than the comparator analog” value is on record as roughly 2. Regarding `N=C(N)NCCC[C@H](NC(=O)[C@@H](Cc1ccc2ccccc2c1)NC(=O)CN1CCN(CC(=O)O)CCN(CC(=O)O)CCN(CC(=O)O)CC1)C(=O)N[C@@H](Cc1c[nH]c2ccccc12)C(=O)N[C@@H](CO)C(=O)N[C@@H](Cc1c[nH]cn1)C(=O)N[C@H](CCCNC(=N)N)C(=O)N[C@@H](Cc1c[nH]c2ccccc12)C(=O)O` [compound 3046] (HELM PEPTIDE1{[O=C(O)CN1CCN(CC(=O)O)CCN(CC(=O)[*:2])CCN(CC(=O)O)CC1].[O=C([C@@H](Cc1ccc2ccccc2c1)N[*:1])[*:2]].R.W.S.H.[dR].W}$$$$V2.0; N-terminus assumed), the EC50 (commonly the midpoint of the concentration-response curve) stood at 15.9 µM. With `CNCC(=O)N[C@@H](CCCNC(=N)N)C(=O)N[C@@H](Cc1c[nH]c2ccccc12)C(=O)N[C@@H](CO)C(=O)N[C@@H](Cc1c[nH]cn1)C(=O)N[C@H](CCCNC(=N)N)C(=O)N[C@@H](Cc1c[nH]c2ccccc12)C(=O)N[C@@H](Cc1ccc(C(=O)c2ccccc2)cc1)C(=O)N1CCC[C@H]1CNC(=O)CN1CCN(CC(=O)O)CCN(CC(=O)O)CCN(CC(=O)O)CC1` [compound 3117] (HELM PEPTIDE1{[Sar].R.W.S.H.[dR].W.[O=C(c1ccccc1)c1ccc(C[C@H](N[*:1])C(=O)[*:2])cc1].[O=C(O)CN1CCN(CC(=O)O)CCN(CC(=O)NC[C@@H]2CCCN2[*:1])CCN(CC(=O)O)CC1]}$$$$V2.0; N-terminus assumed), the concentration giving a half-maximal response (EC50) (Table 15: C-terminus chelator-functionalized peptides, EFO-27 cells, vs [125I-Tyr8]BRU-2477) was determined as 0.34 µM.

`CN(CC(=O)N[C@@H](Cc1cncn1C)C(=O)N[C@@H](Cc1c[nH]c2ccccc12)C(=O)N[C@@H](CO)C(=O)N[C@@H](Cc1c[nH]cn1)C(=O)N[C@H](CCCNC(=N)N)C(=O)N[C@@H](Cc1c[nH]c2ccccc12)C(=O)N[C@@H](Cc1ccc(C(=O)c2ccccc2)cc1)C(=O)N1CCC[C@H]1C(=O)NNC(N)=O)C(=O)CN1CCN(CC(=O)O)CCN(CC(=O)O)CCN(CC(=O)O)CC1` [BRU-2759] yielded an EC50 under setting [1] of 10 µM. In other words, the double-digit micromolar range. Compound `CNCC(=O)N[C@@H](Cc1c[nH]cn1)C(=O)N[C@@H](Cc1c[nH]c2ccccc12)C(=O)N[C@@H](CO)C(=O)N[C@@H](Cc1c[nH]cn1)C(=O)N[C@H](CCCNC(=N)N)C(=O)N[C@@H](Cc1c[nH]c2ccccc12)C(=O)N[C@@H](Cc1ccc(C(=O)c2ccccc2)cc1)C(=O)N1CCC[C@H]1C(=O)NCCNC(=O)CN1CCN(CC(=O)O)CCN(CC(=O)O)CCN(CC(=O)O)CC1` [compound 3079] returned an EC50 of 0.59 ± 0.26 µM. For `CN(CC(=O)N[C@@H](Cc1c[nH]cn1)C(=O)N[C@@H](Cc1c[nH]c2ccccc12)C(=O)N[C@@H](CO)C(=O)N[C@@H](Cc1c[nH]cn1)C(=O)N[C@H](CCCNC(=N)N)C(=O)N[C@@H](Cc1c[nH]c2ccccc12)C(=O)NC1(C(=O)N2CCC[C@H]2C(=O)NNC(N)=O)Cc2ccccc2C1)C(=O)CN1CCN(CC(=O)O)CCN(CC(=O)O)CCN(CC(=O)O)CC1` [BRU-2764], the response was half-maximal at 4.31 µM (EC50). Compared with the last compound, the EC50 is about 7.3-fold higher.

In turn, `CNCC(=O)N[C@@H](CCCNC(=N)N)C(=O)N[C@@H](Cc1c[nH]c2ccccc12)C(=O)N[C@@H](CO)C(=O)N[C@@H](Cc1c[nH]cn1)C(=O)N[C@H](CCCNC(=N)N)C(=O)N[C@@H](Cc1c[nH]c2ccccc12)C(=O)N[C@@H](Cc1ccc(C(=O)c2ccccc2)cc1)C(=O)N1CCC[C@H]1C(=O)NCCCN(C)CCCNC(=O)CN1CCN(CC(=O)O)CCN(CC(=O)O)CCN(CC(=O)O)CC1` [compound 3045] had an EC50 of 0.21 ± 0.08 µM. As to `N=C(N)NCCC[C@H](NC(=O)[C@H]1Cc2ccccc2CN1C(=O)CNC(=O)CN1CCN(CC(=O)O)CCN(CC(=O)O)CCN(CC(=O)O)CC1)C(=O)N[C@@H](Cc1c[nH]c2ccccc12)C(=O)N[C@@H](CO)C(=O)N[C@@H](Cc1c[nH]cn1)C(=O)N[C@H](CCCNC(=N)N)C(=O)N[C@@H](Cc1c[nH]c2ccccc12)C(=O)N[C@@H](Cc1ccc(C(=O)c2ccccc2)cc1)C(=O)N1CCC[C@H]1C(=O)NNC(N)=O` [BRU-3067], the response under setting [1] was half-maximal at 0.51 µM (EC50). This counts as sub-micromolar.

As for `CN(CC(=O)N[C@@H](Cc1c[nH]cn1)C(=O)N[C@@H](Cc1c[nH]c2ccccc12)C(=O)N[C@@H](CO)C(=O)N[C@@H](Cc1c[nH]cn1)C(=O)N[C@H](CCCCNC(=O)c1cccnc1)C(=O)N[C@@H](Cc1c[nH]c2ccccc12)C(=O)N[C@@H](Cc1ccc(O)cc1)C(=O)N1CCC[C@H]1C(=O)NNC(N)=O)C(=O)CN1CCN(CC(=O)O)CCN(CC(=O)O)CCN(CC(=O)O)CC1` [compound 2674] ({DOTA}-[Sar]HWSH[dK](Nicotinoyl)WYP[azaGly]-NH2), the EC50 is 22.6 µM.

The compound `CN(CC(=O)N[C@@H](Cc1c[nH]cn1)C(=O)N[C@@H](Cc1c[nH]c2ccccc12)C(=O)N[C@@H](CO)C(=O)N[C@@H](Cc1c[nH]cn1)C(=O)N[C@H](CCCNC(=N)N)C(=O)N[C@@H](Cc1c[nH]c2ccccc12)C(=O)N[C@@H](Cc1c(F)c(F)c(F)c(F)c1F)C(=O)N1CCC[C@H]1C(=O)NNC(N)=O)C(=O)CN1CCN(CC(=O)O)CCN(CC(=O)O)CCN(CC(=O)O)CC1` [BRU-2722] displayed an EC50 of 4.62 µM. As for `N=C(N)NCCC[C@H](NC(=O)[C@@H](Cc1ccc2ccccc2c1)NC(=O)CN1CCN(CC(=O)O)CCN(CC(=O)O)CCN(CC(=O)O)CC1)C(=O)N[C@@H](Cc1c[nH]c2ccccc12)C(=O)N[C@@H](CO)C(=O)N[C@@H](Cc1c[nH]cn1)C(=O)N[C@H](CCCNC(=N)N)C(=O)N[C@@H](Cc1c[nH]c2ccccc12)C(=O)N[C@@H](Cc1ccc(C(=O)c2ccccc2)cc1)C(=O)N1CCC[C@H]1C(=O)NCC(=O)NCCCO` [compound 2987], the response (EFO-27 cells, competition with [125I-Tyr8]BRU-2477, 90 min) was half-maximal at 2.3 µM (EC50). For `CNCC(=O)N[C@@H](CCCNC(=N)N)C(=O)N[C@@H](Cc1c[nH]c2ccccc12)C(=O)N[C@@H](CO)C(=O)N[C@@H](Cc1c[nH]cn1)C(=O)N[C@H](CCCNC(=N)N)C(=O)N[C@@H](Cc1c[nH]c2ccccc12)C(=O)N[C@@H](Cc1ccc(C(=O)c2ccccc2)cc1)C(=O)N1CCC[C@H]1C(=O)NCCOCCN` [compound 3007], the EC50 worked out at 0.22 µM. For `N=C(N)NCCC[C@@H](NC(=O)[C@H](Cc1c[nH]cn1)NC(=O)[C@H](CO)NC(=O)[C@H](Cc1c[nH]c2ccccc12)NC(=O)[C@H](Cc1c[nH]cn1)NC(=O)[C@@H](Cc1ccc(O)cc1)NC(=O)CN1CCN(CC(=O)O)CCN(CC(=O)O)CCN(CC(=O)O)CC1)C(=O)N[C@@H](Cc1c[nH]c2ccccc12)C(=O)N[C@@H](Cc1ccc(C(=O)c2ccccc2)cc1)C(=O)N1CCC[C@H]1C(=O)NNC(N)=O` [BRU-2870] ({DOTA}-[dY]HWSH[dR]W[Bpa]P[azaGly]-NH2), the EC50 under setting [1] turned out to be 10 µM. Consider `NCCCC[C@@H](NC(=O)[C@H](Cc1c[nH]cn1)NC(=O)[C@H](CO)NC(=O)[C@H](Cc1c[nH]c2ccccc12)NC(=O)[C@H](Cc1c[nH]cn1)NC(=O)[C@@H]1CCC(=O)N1)C(=O)N[C@@H](Cc1c[nH]c2ccccc12)C(=O)N[C@@H](Cc1ccc(O)cc1)C(=O)N1CCC[C@H]1C(=O)NNC(N)=O` [BRU-2437] (HELM PEPTIDE1{[Glp].H.W.S.H.[dK].W.Y.P.[O=C(NN[*:1])[*:2]].[am]}$$$$V2.0), for which it took 8.54 µM to reach a half-maximal effect (EC50).
